Measurements reported in PubChem BioAssay (NCI).
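A five-concentration, 48-hour dose response in 96-well plates underlies each endpoint, interpolated linearly between surrounding concentrations. The concentration for 50% growth inhibition is given as GI50. TGI denotes the concentration required for complete inhibition of growth.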

Experiments:
Assay in all cases: NCI tumour cell line growth inhibition, 48 h
CCRF-CEM leukemia = test system: CCRF-CEM leukemia
HCT-15 colon = test system: HCT-15 colon
HL-60(TB) leukemia = test system: HL-60(TB) leukemia
NCI-H226 lung = test system: NCI-H226 lung
NCI-H23 lung = test system: NCI-H23 lung
NCI-H522 lung = test system: NCI-H522 lung
OVCAR-8 ovarian = test system: OVCAR-8 ovarian
SF-295 CNS = test system: SF-295 CNS
SNB-19 CNS = test system: SNB-19 CNS
KM12 colon = test system: KM12 colon
SK-MEL-28 melanoma = test system: SK-MEL-28 melanoma

Compound	TGI (CCRF-CEM leukemia) [µM]	TGI (HCT-15 colon) [µM]	TGI (HL-60(TB) leukemia) [µM]	TGI (NCI-H226 lung) [µM]	TGI (NCI-H23 lung) [µM]	TGI (NCI-H522 lung) [µM]	TGI (OVCAR-8 ovarian) [µM]	TGI (SF-295 CNS) [µM]	TGI (SNB-19 CNS) [µM]	TGI (KM12 colon) [µM]	TGI (SK-MEL-28 melanoma) [µM]	GI50 (HL-60(TB) leukemia) [µM]	GI50 (NCI-H226 lung) [µM]	GI50 (NCI-H522 lung) [µM]	GI50 (SF-295 CNS) [µM]
CN1CCN(C2=C(Cl)C3(OCCS3)C(F)(F)C2(F)F)CC1 (stereo not given)	> 100	> 100	> 100	> 100	> 100	> 100	> 100	> 100	> 100	–	–	–	–	–	–
CC(C)C(N)C(=O)NC(CCC(=O)NCCCCC(N)C(=O)NCCCNc1ccc([N+](=O)[O-])c2[nH]c3ccccc3c(=O)c12)C(N)=O (stereo not given)	> 100	> 100	–	> 100	> 100	–	> 100	> 100	> 100	> 100	> 100	–	–	–	–
CC(C)[Si](OC/C(=C/COC(C)(C)C)[C@H]1CC=C(C(=O)c2ccccc2N2CN(C)C(=O)N(C)C2)C1)(C(C)C)C(C)C	> 100	27.1	–	28.9	30	19.7	18.1	28.9	24.9	44.4	12.9	–	–	–	–
O=C1OC(c2ccccc2)N(C(=O)c2ccccc2)C1Cc1ccc(OCc2ccccc2)cc1 (stereo not given)	> 100	> 100	> 100	> 100	> 100	–	> 100	–	> 100	–	> 100	–	–	–	–
CC(=O)Oc1c(C)c(C)c2c(c1C)CCC(C)(CC(=O)OCCCCCCCCCCC[P+](c1ccccc1)(c1ccccc1)c1ccccc1)O2 (stereo not given)	–	–	0.926	25.4	–	0.666	–	1.09	–	–	–	0.228	0.386	0.21	0.264
COc1cc([N+](=O)[O-])c(OC)c2c(Nc3ccc(S(=O)(=O)O)c4cc(S(=O)(=O)O)cc(S(=O)(=O)O)c34)cc(C)nc12	> 100	–	> 100	> 100	> 100	> 100	> 100	–	–	> 100	> 100	–	–	–	–
COc1ccc(C2c3cc4c(cc3OC(NCCO)C2C)OCO4)cc1 (stereo not given)	52.4	54.4	43.3	90.2	> 100	47.8	–	89.1	> 100	> 100	69.1	–	–	–	–
COc1cccc2c1OCC1Cc3ccccc3OC21 (stereo not given)	> 100	> 100	–	> 100	> 100	> 100	> 100	> 100	–	> 100	–	–	–	–	–
O=C1c2cccc(O)c2C(=O)c2c(OC3OC(CO)C(O)C(O)C3O)cccc21 (stereo not given)	–	94.9	–	> 100	31.6	40.5	> 100	> 100	> 100	> 100	> 100	–	–	–	–
O=C1C=CC(=O)C(CNc2ccc(C(=O)OCc3ccccc3)cc2)=C1	–	9.1	–	28	30.1	2.87	16.8	34.5	26.5	23.4	17.4	–	–	–	–
CCOC(=O)C1=CC(C)(C(=O)OCC)Nc2c(nc(N)[nH]c2=O)N1 (stereo not given)	> 10	> 10	–	> 10	> 10	> 10	> 10	> 10	> 10	> 10	> 10	–	–	–	–
COc1ccc(OC)c2sc(N3C(=O)/C(=C/c4cccc([N+](=O)[O-])c4)N=C3c3ccccc3)nc12	78.2	> 100	59.4	–	> 100	> 100	> 100	> 100	> 100	> 100	> 100	–	–	–	–
C[C@H]1OC(=O)[C@@H]2N=NN(Cc3ccccc3)[C@H]12	–	> 100	–	–	> 100	> 100	> 100	> 100	> 100	> 100	> 100	–	–	–	–
CN(C)CCCNC(=O)c1c(O)c2ccccc2n(C)c1=O	> 100	> 100	> 100	> 100	> 100	> 100	> 100	> 100	–	> 100	> 100	–	–	–	–
O=C(NN1C(=O)CSC1c1cccc(F)c1)c1ccncc1 (stereo not given)	> 100	> 100	> 100	–	> 100	> 100	> 100	> 100	> 100	> 100	> 100	–	–	–	–
COc1cc(/C=C2\CCC(C)/C(=C\c3cc(OC)c(OC)c(OC)c3)C2=O)cc(OC)c1OC (stereo not given)	4.1	6.57	–	–	–	–	9.52	–	18.4	8.46	25.2	–	–	–	–
COC(=O)[C@H](Cc1ccccc1)NC(=O)N(CCC#N)CCN(C(=O)N[C@@H](Cc1ccccc1)C(=O)OC)c1ccccc1	87	> 100	–	89	93.6	–	> 100	> 100	> 100	> 100	33.9	–	–	–	–
COC1C(O)C(O[C@H]2CC[C@@]3(C)C(CC[C@@H]4[C@@H]3CC[C@]3(C)[C@@H](C(C)OC5OC(CO)C(O)C(O)C5O)CC[C@]43O)C2)OC(C)C1OC1OC(CO)C(O)C(O)C1O (stereo not given in full)	> 100	> 100	–	> 100	> 100	> 100	> 100	> 100	> 100	> 100	> 100	–	–	–	–
C/C(=N\Nc1nc2ccccc2s1)c1ccc2ccccc2n1	63.7	> 100	52.9	–	> 100	> 100	> 100	> 100	> 100	> 100	> 100	–	–	–	–
CC1(C)N=C2C(=O)c3c([nH]c4ccccc34)[C@]3(C)CCC1CC23 (stereo not given in full)	> 6.25	> 6.25	> 6.25	> 6.25	> 6.25	> 6.25	> 6.25	> 6.25	–	> 6.25	> 6.25	–	–	–	–
CC1(C)CC(C#Cc2ccccc2)CC(C)(C)N1O	> 100	29	64.4	53.6	35.2	–	64	35.1	> 100	36.1	32.8	–	–	–	–
CC1(C)OC2COC3([C@@H]4OC(C)(C)O[C@@H]4CO)OC(C)(C)OC3C2O1 (stereo not given in full)	> 100	> 100	–	> 100	> 100	–	> 100	> 100	> 100	> 100	> 100	–	–	–	–
